The procedure of series [1]: The remainder of the hydrolyzed seed mash (100 g-0.79 g) was partitioned into a total of 400 ml EtOAc, by vigorous stirring and shaking. The mixture was then allowed to settle in a large graduate cylinder, the upper 100 ml was removed and evaporated under vacuum. […] This oil was then vortexed (1 g volume per 100 ml of water), then allowed to re-equilibrate into two phases, filtered, and the aqueous phase used for HPLC determination of sulforaphane content as described above.
The source holds these as a separate data set.

Each structure is given as a SMILES string.

`C[S+]([O-])CCCCN=C=S` (centres unmarked) [sulforaphane, 4-methylsulfinylbutyl isothiocyanate]: where the note is “pure sulforaphane spiked into ethyl acetate/water”, the “partition in biphasic mixture of ethyl acetate and water” value is “partitions to the organic fraction”. Also, the “partition in biphasic mixture of hexane and water” value (pure sulforaphane spiked into hexane/water) is on record as “partitions to the aqueous fraction”. Besides, the solubility in oil result in series [1] (broccoli seed oil) was “oil soluble”. Besides, the solubility in hexane entry in series [1] (hexane) was “not soluble”. Further, in series [1] (water, back-extraction of the oil), the solubility in water entry is reported as “reasonable solubility”.

These data come from patent publication US20060127996A1, “Method of extraction of isothiocyanates into oil from glucosinolate-containing plants and method of producing products with oil containing isothiocyanates extracted from glucosinolate-containing plants” (Johns Hopkins University, priority 2004, published 2006).
